Measured values from patent US11116212B2, “Carbonyl containing compounds for controlling and repelling Cimicidae populations” (SemiosBio Technologies Inc., priority 2011, dated 2021).
Where a name gives a salt, the structure may show the parent alone. Read-outs that look alike come from different tables or passages of the source.

Test system: bed bugs, Cimex lectularius
Assay: Bed bug repellency bioassay, glass tube olfactometer arena
Format: in vivo
Settings: for pest or weed control at 25 % strength / pest or weed control at 5 % strength / pest or weed control at 1 %: Cimex lectularius; for % Repellency, At least One Average >50%: best average over 3 replicates for a single time period
Experimental: Per individual bioassay, 10 adult or late instar nymph bed bugs, Cimex lectularius, of mixed sex. Bed bugs sourced from wild, field populations and tested within 2 weeks of capture. Subjects were tested one time, only.
(ii) Olfactometer consisting of a glass tube. Tube ends were plugged to prevent egress of test subjects. Test substrates were placed at opposite ends of the tube. Tube Olfactometer includes a port in the centre for introduction of test subjects. Dimensions of the tube were 15.2 mm in diameter by 304.8 mm long.
Compounds were either purchased from commercial sources or synthesized using conventional synthetic organic chemistry techniques (see, for example, Examples 5 to 7). Some compounds (014, 058 and 080) were tested in duplicate (one version from commercial sources and one synthesized) and the best performance is reported in the Tables below. Of the tested compounds reported in the Tables below, the following compounds were synthesized: 006, 010, 017, 018, 040, 041 to 043, 045, 046, 048, 049, 058, 067 to 075, 079, 080 to 082, 089 and 090.
Test compounds consisted of a control and treatment. The treatment consisted of a test compound mixed as a percentage w/w in a suitable solvent. The test compound solvent itself was used as a control. Solvents used were hexane, hexane:methanol, or dichloromethane:methanol.
(i) Gauze cut to a standard size and folded upon itself to provide harbourage for test subjects.
(iii) Absorbent polymer “aroma” beads that were given sufficient time to fully absorb test compounds and control solvents.
In the case of gauze and filter paper substrates, control solvents and test mixtures of known concentrations and volumes were dispensed directly onto substrates using a pipette. For polymer beads, beads were mixed w/w with solvent or test compound in a small glass jar. The jars were occasionally agitated to facilitate soaking of the beads.
Immediately after the substrates were infused with test compounds and control solvents, test subjects were introduced to the centre of the selected observation arena. […] Only subjects that were in close contact with the treatment or control substrates were recorded. Subjects elsewhere in the arena were not included in repellency calculations. Percentage repellency was calculated based on a modification of Abbott's formula to account for negative repellency (attraction). Specifically: IF(C>=T,(C−T)/C*100,(T−C)/T*−100)
where C is number of test subjects in contact with control substrate and T is number of test subjects in contact with treatment substrate.
All average repellency results reported in the table are based on 3 replicates for each reported trial, with each trial involving at least 3 observation periods. The observation periods were short-term (30 min), medium-term (1-2 hours), and long-term (24-48 hours). The “overall average” reported in the table represents the average for 3 replicates for 3 observation periods. […]
To determine whether compounds could be combined in the repellent compositions, compounds 14 and 35 were each tested at a concentration of 5% (w/w), and as a combination comprising each compound at a concentration of 2.5% (w/w). The formulations were tested as described in Example 1 using the olfactometer configuration.

[1] = beads, 20 uL, 25% w/w in hexane, average of 3 replicates x 3 observation periods, read-out: % Repellency (% R), Overall Average
[2] = gauze, 50 uL, 5% w/v in hexane, average of 3 replicates x 3 observation periods, read-out: % Repellency (% R), Overall Average
[3] = observation period T1, beads, 20 uL, 25% w/w in hexane, read-out: % Repellency T1 (average of 3 repetitions)
[4] = observation period T2, beads, 20 uL, 25% w/w in hexane, read-out: % Repellency T2 (average of 3 repetitions)
[5] = observation period T3, beads, 20 uL, 25% w/w in hexane, read-out: % Repellency T3 (average of 3 repetitions)
[6] = observation period T1, gauze, 50 uL, 5% w/v in hexane, read-out: % Repellency T1 (average of 3 repetitions)
[7] = observation period T2, gauze, 50 uL, 5% w/v in hexane, read-out: % Repellency T2 (average of 3 repetitions)
[8] = observation period T3, gauze, 50 uL, 5% w/v in hexane, read-out: % Repellency T3 (average of 3 repetitions)
[9] = gauze, 10 uL, 1% v/v in hexane, average of 3 replicates x 3 observation periods, read-out: % Repellency (% R), Overall Average
[10] = gauze, 50 uL, 5% w/v in hexane, best single observation (one repetition, one time), read-out: % Repellency, At least One Time >50%
[11] = gauze, 10 uL, 1% v/v in hexane, best single observation (one repetition, one time), read-out: % Repellency, At least One Time >50%
[12] = observation period T1, gauze, 10 uL, 1% v/v in hexane, read-out: % Repellency T1 (average of 3 repetitions)
[13] = observation period T2, gauze, 10 uL, 1% v/v in hexane, read-out: % Repellency T2 (average of 3 repetitions)
[14] = observation period T3, gauze, 10 uL, 1% v/v in hexane, read-out: % Repellency T3 (average of 3 repetitions)

Work on CCC(=O)OCC1CCCO1 (stereo not shown) [Compound 060, Tetrahydro furfuryl propionate] yielded a pest or weed control at 25 % strength [1] of 78%.

CCCCC(O)c1ccco1 (stereo not shown) [Compound 073, 1-(furan-2-yl) pentan-1-ol] gave a pest or weed control at 5 % strength [2] of over 80%.

CCCCC(=O)c1ccco1 [Compound 090, 1-Pentanone, 1-(2-furanyl)-] gave a pest or weed control at 5 % strength [2] of over 80%.

CCC(C)C(O)c1ccco1 (stereo not shown) [Compound 072] gave a pest or weed control at 5 % strength [2] of 79%.

Work on CCOC(=O)CCC(C)=O [Compound 076, ethyl levulinate] yielded a pest or weed control at 5 % strength [2] of 69%.

CCC(=O)/C=C/C(=O)O [Compound 070, (E)-4-oxohex-2-enoic acid] gave a pest or weed control at 1 % (gauze, 10 uL, 1% v/v in hexane:methanol (1:1), average of 3 replicates x 3 observation periods, read-out: % Repellency (% R), Overall Average) of 74%.

COC(=O)CCC=O [Compound 052, Methyl 4-oxobutanoate] gave a pest or weed control at 25 % strength [1] of -17%, a pest or weed control at 25 % strength (beads, 20 uL, 25% w/w in hexane, best single observation (one repetition, one time), read-out: % Repellency, At least One Time >50%) of 100% and a pest or weed control at 25 % strength [3] of 11%. It also gave a pest or weed control at 25 % strength [4] of -50% and a pest or weed control at 25 % strength [5] of -11%.

CCC(=O)/C=C/c1ccco1 [Compound 040, (E)-1-(furan-2-yl)pent-1-en-3-one] showed a pest or weed control at 5 % strength [2] of over 80%.

Work on CCC/C=C/C=O [Compound 038, trans-2-hexen-1-al] yielded a pest or weed control at 5 % strength [2] of 72%.

CCC(=O)NC [Compound 032, N-Methylpropionamide] was tested, and the pest or weed control at 25 % strength (read-out: % Repellency (% R), Overall Average, beads, 20 uL, 25% w/w in hexane, average of 3 replicates x 3 observation periods) was -9%, the pest or weed control at 25 % strength (read-out: % Repellency T1 (average of 3 repetitions), observation period T1, beads, 20 uL, 25% w/w in hexane) was 39% and the pest or weed control at 25 % strength (read-out: % Repellency T2 (average of 3 repetitions), observation period T2, beads, 20 uL, 25% w/w in hexane) was -40%. It also gave a pest or weed control at 25 % strength (read-out: % Repellency T3 (average of 3 repetitions), observation period T3, beads, 20 uL, 25% w/w in hexane) of -25% and a pest or weed control at 25 % strength (read-out: % Repellency, At least One Time >50%, beads, 20 uL, 25% w/w in hexane, best single observation (one repetition, one time)) of 100%.

Work on CCC(=O)/C=C(\C)C(C)=O [Compound 074, (E)-3-methylhept-3-ene-2,5-dione] yielded a pest or weed control at 25 % strength (beads, 20 uL, 25% w/w in dichloromethane:methanol (1:1), average of 3 replicates x 3 observation periods, read-out: % Repellency (% R), Overall Average) of over 80%.

Work on CCC(=O)COC=O [Compound 010, 2-oxobutyl formate] yielded a pest or weed control at 25 % strength [1] of 45%, a pest or weed control at 25 % strength [3] of 85% and a pest or weed control at 25 % strength [4] of 42%. The pest or weed control at 25 % strength [5] was 8% and the “% Repellency, At least One Average >50%” value (beads, 20 uL, 25% w/w in hexane) was 85%.

Work on CC(=O)CC/C=C(\C)CCC=C(C)C [Compound 044, 6,10-dimethyl-5,9-undecadien-2-one] yielded a pest or weed control at 5 % strength [2] of over 80%.

CCC(=O)C(=O)CC [Compound 027, 3,4-Hexanedione] was tested, and the pest or weed control at 5 % strength (read-out: % Repellency (% R), Overall Average, gauze, 50 uL, 5% w/v in hexane, average of 3 replicates x 3 observation periods) was 75%.

CCCCCCCCCCCC(C)=O [Compound 024, Methyl undecyl ketone (2-tridecanone)] showed a pest or weed control at 5 % strength [2] of over 80%.

In the case of CCC(=O)CC(=O)OC [Compound 034, Methyl 3-oxovalerate], the pest or weed control at 5 % strength [2] is reported as 27%, the pest or weed control at 5 % strength [6] is reported as 81% and the pest or weed control at 5 % strength [7] is reported as 94%. For the same compound, the pest or weed control at 5 % strength [8] was -94% and the “% Repellency, At least One Average >50%” value (gauze, 50 uL, 5% w/v in hexane) was 94%.

CC(C)C(=O)c1ccco1 [Compound 082, 1-(2-furyl)-2-methyl-propan-1-one] gave a pest or weed control at 25 % strength [1] of over 80%.

Work on CC(C)C(O)c1ccco1 (stereo not shown) [Compound 071, 1-(furan-2-yl)-2-methylpropan-1-ol] yielded a pest or weed control at 1 % [9] of 57%.

Work on CCC(=O)CC [Compound 062, 3-pentanone] yielded a pest or weed control at 5 % strength [2] of 10%, a pest or weed control at 5 % strength [10] of 89% and a pest or weed control at 5 % strength [6] of -11%. For the same compound, the pest or weed control at 5 % strength [7] was -3% and the pest or weed control at 5 % strength [8] was 43%.

CCCC(=O)/C=C/CO [Compound 046, (E)-1-hydroxyhept-2-en-4-one] gave a pest or weed control at 5 % strength [2] of 65%.

Compound CCC(=O)NCC(OC)OC [Compound 045, N-(2,2-dimethoxyethyl) propionamide] has a pest or weed control at 5 % strength [2] of 70%.

In the case of CCC(C)C(=O)c1ccco1 (stereo not shown) [Compound 089, 1-furan-2-yl-2-methylbutan-1-one], the pest or weed control at 5 % strength [2] is reported as over 80%.

Compound C=CCOC(=O)CC [Compound 017, allyl propionate] has a pest or weed control at 1 % [9] of 4%, a pest or weed control at 1 % [11] of 90% and a pest or weed control at 1 % [12] of -20%. For the same compound, the pest or weed control at 1 % [13] was 13% and the pest or weed control at 1 % [14] was 18%.

For CCC(=O)C(=O)OC [Compound 054, Methyl-2-oxobutanoate], the pest or weed control at 1 % [9] was over 80%.

Compound CCC(=O)/C=C/CO [Compound 006, (E)-6-hydroxyhex-4-en-3-one] has a pest or weed control at 1 % [9] of -49%, a pest or weed control at 1 % [11] of 57% and a pest or weed control at 1 % [12] of -62%. It also gave a pest or weed control at 1 % [13] of -74% and a pest or weed control at 1 % [14] of -11%.

Work on CC(O)c1ccco1 (stereo not shown) [Compound 069, 1-(furan-2-yl)ethanol] yielded a pest or weed control at 25 % strength [1] of over 80%.

CCOC(=O)/C=C/C(=O)CC [Compound 068, (E)-ethyl 4-oxohex-2-enoate] showed a pest or weed control at 1 % [9] of 43%, a pest or weed control at 1 % [12] of 30% and a pest or weed control at 1 % [13] of 32%. For the same compound, the pest or weed control at 1 % [14] was 65% and the “% Repellency, At least One Average >50%” value (gauze, 10 uL, 1% v/v in hexane) was 65%.

Compound CC(=O)c1ccco1 [Compound 080, 2-Furyl methyl ketone] has a pest or weed control at 5 % strength [2] of over 80%.

CCC(=O)/C(C)=C/c1ccco1 [Compound 048, (E)-1-(furan-2-yl)-2-methylpent-1-en-3-one] showed a pest or weed control at 5 % strength [2] of over 80%.

Compound C=COC(=O)CC [Compound 031, Vinyl propionate] has a pest or weed control at 5 % strength [2] of 8%, a pest or weed control at 5 % strength [10] of 100% and a pest or weed control at 5 % strength [6] of 45%. For the same compound, the pest or weed control at 5 % strength [7] was 45% and the pest or weed control at 5 % strength [8] was -67%.

In the case of COC(=O)/C=C/C(=O)OC [Compound 058, dimethyl fumarate], the pest or weed control at 5 % strength [2] is reported as over 80%.

For CCCCCC=O [Compound 037, hexanal], the pest or weed control at 5 % strength [2] was 79%.

With CCCCC/C=C/C=O [Compound 039, trans-2-octenal] the pest or weed control at 5 % strength [2] was 78%.

COC(=O)/C=C/C(C)=O [Compound 056, Methyl trans-4-oxo-2-pentenoate] showed a pest or weed control at 5 % strength [2] of 53%.

In the case of CCOC(C#CC(=O)CC)OCC [Compound 079, 6,6-diethoxyhex-4-yn-3-one], the pest or weed control at 5 % strength [2] is reported as over 80%.

CCCCCCC(=O)CC [Compound 028, 3-Nonanone] was tested, and the pest or weed control at 1 % [9] was -10%, the pest or weed control at 1 % [11] was 67% and the pest or weed control at 1 % [12] was -11%. For the same compound, the pest or weed control at 1 % [13] was -11% and the pest or weed control at 1 % [14] was -6%.
